For three molecules, Ki and EC50 results are on record in ChEMBL document CHEMBL1146702, “Synthesis and nicotinic receptor activity of a hydroxylated tropane” (Bioorg Med Chem Lett, 2004).

In test [1] the target is Neuronal acetylcholine receptor. Nature of the test: Binding affinity against nicotinic acetylcholine receptor using [3H]epibatidine as radioligand in rat brain tissue. Type of test: tissue-based.
Test [2] has as its target Neuronal acetylcholine receptor; alpha4/beta2 (Homo sapiens, UniProt P17787+P43681). Kind of test: Binding affinity against nicotinic acetylcholine receptor alpha4-beta2 using [3H]epibatidine as radioligand expressed in HEK293 cells or tsA cells. Type of test: cell-based.
Test [3] concerns the target Neuronal acetylcholine receptor; alpha4/beta4 (Homo sapiens, UniProt P30926+P43681). Kind of test: Binding affinity against nicotinic acetylcholine receptor alpha4-beta4 using [3H]epibatidine as radioligand expressed in HEK293 cells or tsA cells. The test is classed as cell-based.
Test [4] concerns the target T1, Neuronal acetylcholine receptor; alpha3/beta4 (Homo sapiens, UniProt P30926+P32297). Nature of the test: Agonistic potency against nicotinic acetylcholine receptor alpha3-beta4. Type of test: functional.
The target of test [5] is T1, Neuronal acetylcholine receptor; alpha3/beta4. Nature of the test: Binding affinity against nicotinic acetylcholine receptor alpha3-beta4 using [3H]epibatidine as radioligand expressed in HEK293 cells or tsA cells. Type of test: cell-based.
Test [6] concerns the target Neuronal acetylcholine receptor; alpha2/beta4 (Homo sapiens, UniProt P30926+Q15822). Nature of the test: Binding affinity against nicotinic acetylcholine receptor alpha2-beta4 using [3H]epibatidine as radioligand expressed in HEK293 cells or tsA cells. The test is classed as cell-based.

pEC50, pKi: −log10 of the molar value.

Sequence of Neuronal acetylcholine receptor; alpha2/beta4 (P30926 whole entry): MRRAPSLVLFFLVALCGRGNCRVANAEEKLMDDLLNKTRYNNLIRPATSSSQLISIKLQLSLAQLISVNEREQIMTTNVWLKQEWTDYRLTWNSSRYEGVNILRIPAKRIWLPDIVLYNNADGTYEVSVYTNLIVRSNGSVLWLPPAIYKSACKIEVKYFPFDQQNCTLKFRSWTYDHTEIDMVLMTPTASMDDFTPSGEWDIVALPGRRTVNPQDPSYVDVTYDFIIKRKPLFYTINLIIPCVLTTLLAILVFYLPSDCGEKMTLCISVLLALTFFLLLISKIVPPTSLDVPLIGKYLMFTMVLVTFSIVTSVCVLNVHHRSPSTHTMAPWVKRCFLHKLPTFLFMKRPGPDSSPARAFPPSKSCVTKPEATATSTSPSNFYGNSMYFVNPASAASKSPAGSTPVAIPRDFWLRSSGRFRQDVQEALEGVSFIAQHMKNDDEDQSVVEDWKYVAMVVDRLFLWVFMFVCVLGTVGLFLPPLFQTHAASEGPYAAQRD
Sequence of Neuronal acetylcholine receptor; alpha2/beta4 (Q15822 whole entry): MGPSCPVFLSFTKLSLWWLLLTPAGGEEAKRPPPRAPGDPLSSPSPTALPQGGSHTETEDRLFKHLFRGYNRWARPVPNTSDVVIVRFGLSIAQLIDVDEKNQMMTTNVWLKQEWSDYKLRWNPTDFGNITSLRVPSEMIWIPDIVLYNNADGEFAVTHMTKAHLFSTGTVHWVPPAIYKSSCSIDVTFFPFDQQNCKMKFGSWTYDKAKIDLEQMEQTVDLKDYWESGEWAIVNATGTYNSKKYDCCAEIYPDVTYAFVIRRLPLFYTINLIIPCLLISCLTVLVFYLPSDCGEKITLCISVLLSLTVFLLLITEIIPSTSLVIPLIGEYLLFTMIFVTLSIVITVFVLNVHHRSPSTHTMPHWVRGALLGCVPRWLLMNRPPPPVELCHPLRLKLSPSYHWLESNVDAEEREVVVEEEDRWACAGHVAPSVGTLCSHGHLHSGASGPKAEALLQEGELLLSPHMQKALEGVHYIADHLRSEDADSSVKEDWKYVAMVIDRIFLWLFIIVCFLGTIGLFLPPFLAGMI
T1 sequence (P30926 whole entry): as the sequence (P30926 whole entry) above
T1 sequence (P32297 whole entry): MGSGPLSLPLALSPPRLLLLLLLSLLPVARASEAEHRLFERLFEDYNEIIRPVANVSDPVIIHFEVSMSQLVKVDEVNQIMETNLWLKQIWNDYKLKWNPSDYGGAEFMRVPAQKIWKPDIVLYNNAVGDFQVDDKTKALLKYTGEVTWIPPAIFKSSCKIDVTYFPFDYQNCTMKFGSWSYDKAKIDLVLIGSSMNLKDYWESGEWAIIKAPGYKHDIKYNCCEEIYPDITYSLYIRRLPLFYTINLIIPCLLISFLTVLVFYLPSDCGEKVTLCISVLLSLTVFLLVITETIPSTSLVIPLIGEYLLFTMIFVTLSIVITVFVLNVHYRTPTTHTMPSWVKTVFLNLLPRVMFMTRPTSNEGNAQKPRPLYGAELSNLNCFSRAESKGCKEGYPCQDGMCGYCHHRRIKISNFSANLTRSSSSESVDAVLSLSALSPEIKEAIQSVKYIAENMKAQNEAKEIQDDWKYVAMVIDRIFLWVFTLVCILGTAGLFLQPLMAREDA
Sequence of Neuronal acetylcholine receptor; alpha4/beta2 (P17787 whole entry): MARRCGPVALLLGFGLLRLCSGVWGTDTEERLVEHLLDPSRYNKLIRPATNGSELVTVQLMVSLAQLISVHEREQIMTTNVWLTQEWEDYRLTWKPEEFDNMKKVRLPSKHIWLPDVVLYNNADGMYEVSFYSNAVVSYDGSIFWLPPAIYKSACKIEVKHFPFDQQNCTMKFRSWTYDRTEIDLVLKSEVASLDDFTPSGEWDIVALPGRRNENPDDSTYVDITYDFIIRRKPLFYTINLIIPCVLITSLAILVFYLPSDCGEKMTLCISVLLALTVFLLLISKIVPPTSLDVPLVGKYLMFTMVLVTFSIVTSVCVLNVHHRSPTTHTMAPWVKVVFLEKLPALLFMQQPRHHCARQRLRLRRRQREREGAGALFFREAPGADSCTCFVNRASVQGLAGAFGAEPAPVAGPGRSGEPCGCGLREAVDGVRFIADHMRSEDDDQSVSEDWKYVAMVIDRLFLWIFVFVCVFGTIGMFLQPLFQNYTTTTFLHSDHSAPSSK
Sequence of Neuronal acetylcholine receptor; alpha4/beta2 (P43681 whole entry): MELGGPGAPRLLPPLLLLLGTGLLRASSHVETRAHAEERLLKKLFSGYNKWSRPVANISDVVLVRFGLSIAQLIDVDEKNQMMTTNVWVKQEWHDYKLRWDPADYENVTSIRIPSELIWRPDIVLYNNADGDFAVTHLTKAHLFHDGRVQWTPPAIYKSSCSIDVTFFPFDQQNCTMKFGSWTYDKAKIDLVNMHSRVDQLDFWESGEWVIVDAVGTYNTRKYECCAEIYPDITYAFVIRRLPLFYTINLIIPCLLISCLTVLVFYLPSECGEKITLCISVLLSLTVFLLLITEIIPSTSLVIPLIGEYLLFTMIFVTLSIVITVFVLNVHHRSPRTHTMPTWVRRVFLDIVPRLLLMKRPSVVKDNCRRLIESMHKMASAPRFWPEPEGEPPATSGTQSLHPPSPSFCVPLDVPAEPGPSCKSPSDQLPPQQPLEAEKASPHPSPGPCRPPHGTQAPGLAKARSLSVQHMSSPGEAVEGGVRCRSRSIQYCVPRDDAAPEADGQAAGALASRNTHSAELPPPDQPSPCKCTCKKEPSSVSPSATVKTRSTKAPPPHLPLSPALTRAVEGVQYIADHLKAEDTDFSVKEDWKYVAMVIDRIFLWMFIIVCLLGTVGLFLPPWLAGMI
Sequence of Neuronal acetylcholine receptor; alpha4/beta4 (P30926 whole entry): as the sequence (P30926 whole entry) above
Sequence of Neuronal acetylcholine receptor; alpha4/beta4 (P43681 whole entry): as the sequence (P43681 whole entry) above

For `OC1CC2CC(c3ccc(Cl)nc3)C(C1)N2` (stereo not drawn), the pKi in test [1] is 7.74; in test [2], 8.13; in test [3], 7.42; in test [5] it was 7.06; in test [6], 7.51. The pEC50 in test [4] is 5.68.

`Clc1ccc(C2CC3CCC2N3)cn1` (stereo not drawn) [EPIBATIDINE] showed a negative-log Ki (pKi) in test [6] of 10.04.

In test [6], `CN1CCC[C@H]1c1cccnc1` [NICOTINE] had a pKi of 6.99.

By pKi is commonly meant −log10 of the Ki, conventionally taken in molar units. Read a low pKi as a high Ki. Broadly, the pEC50 is the EC50 on a negative log10 scale, so that one unit is a factor of ten. A high value points to a small EC50.
